Assay results from PMC8715119, “Second-generation non-hematopoietic erythropoietin-derived peptide for neuroprotection” (Redox Biology, 2021).
Values belong to the molecule of their own block, whether it stands above or below them.

Legend:
[1] = as previously reported; cited from earlier work
Protocol: (§1) All peptides including ML1, ML1-c1, ML1-c2, ML1-c3, ML1-h1, ML1-h2, and ML1-h3 were synthesized as monomers by solid-phase peptide synthesis. […] To evaluate the purity and concentration of the peptides, LC/MSD (HP 1100 series) and HPLC analyses (SHIMADZU prominence HPLC) were performed. We obtained peptides having >95% purity and then dissolved with DMSO or water as a high ...

EPOR = conditions: as previously reported; cited from earlier work
Protocol: as §1

EphB4 (Homo sapiens) = EphB4 (Homo sapiens) (UniProt P54760); conditions: cited from earlier work
EphB4 (Homo sapiens), sequence (P54760 16-539): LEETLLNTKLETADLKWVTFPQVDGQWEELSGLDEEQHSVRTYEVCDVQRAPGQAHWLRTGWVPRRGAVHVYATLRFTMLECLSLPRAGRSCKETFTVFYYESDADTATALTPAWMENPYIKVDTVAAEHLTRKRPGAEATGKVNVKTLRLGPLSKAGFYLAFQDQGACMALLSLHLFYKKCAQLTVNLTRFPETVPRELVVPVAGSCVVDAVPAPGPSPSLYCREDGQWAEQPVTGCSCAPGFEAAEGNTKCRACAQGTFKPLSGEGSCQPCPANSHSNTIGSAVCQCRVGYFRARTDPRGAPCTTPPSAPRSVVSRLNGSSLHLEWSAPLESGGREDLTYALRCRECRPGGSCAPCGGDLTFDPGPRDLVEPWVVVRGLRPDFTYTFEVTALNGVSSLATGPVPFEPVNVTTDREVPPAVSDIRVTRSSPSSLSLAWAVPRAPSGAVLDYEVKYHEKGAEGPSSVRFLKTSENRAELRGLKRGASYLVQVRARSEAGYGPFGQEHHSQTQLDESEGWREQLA

[2] = system: differentiated neuronal PC12 cells; assay: Cell viability (MTS) under H2O2-induced oxidative stress; type: cell-based, rat; conditions: 300 μM H2O2 for 24 h; peptides 1 ng/ml, reEPO 0.5 IU/ml; MTS; n = 3; Fig. 1c
Protocol: (§2) PC12 cells (#CRL-1721, ATCC, USA), a rat pheochromocytoma cell line derived from the adrenal medulla (#CRL-1721, ATCC, USA), were seeded on a dish, which was coated by poly L-lysine (0.01%; Sigma Chemical Co., USA), and grown in RPMI 1640 medium (#11875093, Gibco, USA), supplemented with 10% heat-inactivated horse serum (#26050088, Gibco, USA), 5% fetal bovine serum (FBS) (#SH30919.03, Hyclone, USA), and 1% penicillin/streptomycin at 37°C with 5% CO2. For neuronal differentiation, PC12 cells were plated at a density of 1.25x10^3 cell/cm^2 into 96-well plates coated with collagen 1 (#354236, BD Biosciences, USA) and grown in RPMI 1640 medium supplemented with 50 ng/ml nerve growth factor (NGF) (BD Biosciences, USA) and 0.5% FBS for 10 days. The NGF-supplemented media was replaced with fresh media every 3 days during neuronal differentiation.
(§3) Cell viability was evaluated by 3-[(4,5-dimethylthiazol-2-yl)-5,3-carboxymethoxyphenyl]-2-(4-sulfophenyl)-2H tetrazolium, inner salt (MTS) reduction assay (CellTiter 96 Aqueous One Solution Cell Proliferation Assay, Promega, Madison, WI, USA). Briefly, differentiated neuronal-PC12 cells were treated with H2O2 (300 μM) with or without reEPO and peptides for 24 h. The PC12 cells were washed with PBS; 20 ul MTS solution was added to each well with 100 μl PBS, and the cells were incubated for 3 h at 37°C and 5% CO2. The intracellular soluble formazan produced by cellular reduction of the MTS was determined by recording the absorbance at 490 nm using a microplate reader (VersaMax, Molecular Devices, USA). Cell proliferation was also evaluated by the MTS assay. Undifferentiated PC12 cells were seeded into a 96-well plate (5x10^4 cells/well). The next day, the initial cell number was counted; after 48 h, under low FBS concentration (0.5%), with or without reEPO and peptides, cell number was measured by the MTS assay.

[3] = system: differentiated neuronal PC12 cells; assay: Cellular ROS level by H2DCFDA under H2O2; type: cell-based, rat; conditions: H2O2 for 6 h; H2DCFDA staining; n = 5; Fig. 4b
Protocol: as §2
The cellular ROS level was measured using 2′,7′-dichlorodihydrofluorescein diacetate (H2DCFDA) (#D399, Invitrogen, USA). The cells were incubated with 5 μM H2DCFDA in PBS for 30 min, washed with PBS, and then resuspended in the medium for 2 h. After treatment of H2O2 without or with reEPO, or peptide, we monitored the oxidative stress by measuring the fluorescence intensities of H2DCFDA by using excitation and emission wavelengths of 485 nm and 535 nm, respectively.

[4] = system: undifferentiated PC12 cells; assay: Cell proliferation (MTS) under low serum; type: cell-based, rat; conditions: 0.5% fetal bovine serum, 48 h, reEPO 10 IU/ml, peptides 10 ng/ml, n = 5, Fig. 4c
Protocol: PC12 cells (#CRL-1721, ATCC, USA), a rat pheochromocytoma cell line derived from the adrenal medulla (#CRL-1721, ATCC, USA), were seeded on a dish, which was coated by poly L-lysine (0.01%; Sigma Chemical Co., USA), and grown in RPMI 1640 medium (#11875093, Gibco, USA), supplemented with 10% heat-inactivated horse serum (#26050088, Gibco, USA), 5% fetal bovine serum (FBS) (#SH30919.03, Hyclone, USA), and 1% penicillin/streptomycin at 37°C with 5% CO2. […]
as §3, with “Briefly, differentiated neuronal-PC12 cells were treated with H2O2 (300 μM) with or without reEPO and peptides for 24 h. The PC12 cells were washed with PBS; 20 ul MTS solution was added to each well with 100 μl PBS, and the cells were incubated for 3 h at 37°C and 5% CO2.” left out, “Undifferentiated PC12 cells were seeded into a 96-well plate (5x10^4 cells/well).” left out

[5] = target: T1, Soluble recombinant human EPOR-Fc chimera protein (human, UniProt P19235 25-250); assay: SPR; Reichert SR 7500 C; EPOR-Fc covalently immobilised by amine coupling on a carboxymethylated dextran chip; peptides at 5, 2.5 and 1.25 uM flowed at 5 ul/min, in duplicate; regeneration with 25 mM acetic acid; conditions: both partners purified
T1 construct: erythropoietin receptor (EPOR), human, soluble form fused to Fc; the discussion says the SPR analysis was based on only the extracellular domain of EPOR; also called erythropoietin receptor; source: bought: R&D Systems (#963-ER)
T1 sequence (looked up): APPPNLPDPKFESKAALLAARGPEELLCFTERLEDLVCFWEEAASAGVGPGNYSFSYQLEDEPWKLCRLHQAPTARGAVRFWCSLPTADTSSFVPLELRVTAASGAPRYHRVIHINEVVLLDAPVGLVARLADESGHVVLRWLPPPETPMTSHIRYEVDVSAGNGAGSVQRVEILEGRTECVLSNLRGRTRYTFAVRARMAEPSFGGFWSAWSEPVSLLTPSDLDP

Molecule: AMELSGRTLGLILKLRQSATL [negative control peptide]
Effect on cell survival and proliferation [1]: unaffected cell survival and proliferation | Binding to EPOR (EPOR): did not bind to EPOR

Molecule: EPO (from UniProt P01588)
Kd (EphB4 (Homo sapiens)): 880 nM

Molecule: ML1: monomeric peptide spanning 118Leu-140Gly of helix C of EPO; prototype for second-generation EPO-derived peptide (LQLHVDKAVSGLRSLTTLLRALG)
Cell viability (neuroprotective effect) against H2O2 [2]: a better neuroprotective effect than reEPO | Level of reactive oxygen species (ROS) induced by H2O2 [3]: decreased the levels of reactive oxygen species (ROS) | Cell proliferation (cell number) [4]: did not induce proliferation

Molecule: ML4: monomeric peptide spanning 127Ser-140Gly of helix C of EPO
Cell viability (neuroprotective effect) against H2O2 [2]: showed a neuroprotective effect

binding result [5]: binds
B1: ML1 (peptide, UniProt P01588 118-140, looked up)
peptide: LQLHVDKAVSGLRSLTTLLRALG
notes: Monomeric peptide; also called ML1 prototype; source: synthetic peptide (solid-phase synthesis, monomer, >95% purity; bought: Peptron Inc.)
